Results from US5516783A, “4-(1H-2-methylimidazo[4,5-c]pyridinylmethyl)phenylsulphonamide derivatives as antagonist of PAF” (British Biotech Pharmaceuticals Limited, priority 1992, dated 1996).

These compounds were tested against T1, platelet activating factor (PAF) receptor (human platelet plasma membrane) (Homo sapiens, UniProt P25105) (assay: inhibition of [^3 H]-PAF receptor binding to human platelet plasma membrane). Settings: [^3 H]-PAF 0.5 nM, 0° C., 1 hour, pH 7.0.
T1 construct: Platelet concentrates were obtained from a hospital blood bank; from tissue; host or cells: human platelets (hospital blood bank concentrates), lysed plasma membrane preparation
T1 sequence (P25105 whole entry): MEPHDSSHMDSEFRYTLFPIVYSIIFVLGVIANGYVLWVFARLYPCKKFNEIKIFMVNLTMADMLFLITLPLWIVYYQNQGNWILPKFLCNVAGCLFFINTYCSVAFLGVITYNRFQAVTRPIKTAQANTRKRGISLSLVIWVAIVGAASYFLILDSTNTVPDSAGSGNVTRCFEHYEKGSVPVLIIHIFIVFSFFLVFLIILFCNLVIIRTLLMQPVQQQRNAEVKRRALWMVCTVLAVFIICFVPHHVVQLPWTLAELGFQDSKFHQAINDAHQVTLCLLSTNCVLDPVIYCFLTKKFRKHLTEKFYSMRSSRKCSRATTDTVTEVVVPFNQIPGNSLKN
Procedure: The inhibition of [^3 H]-PAF binding to human platelet plasma membrane by compounds of general formula I was determined by isotopic labelling and filtration techniques. Platelet concentrates were obtained from a hospital blood bank. These platelet concentrates (500-2500 ml.) were centrifuged at 800 rpm for 10 minutes in a SORVALL RC3B centrifuge to remove the red blood cells present. (The word SORVALL is a trade mark.) The supernatant was subsequently centrifuged at 3,000 rpm in a SORVALL RC3B centrifuge to pellet the platelets present. The platelet rich pellets were resuspended in a minimum volume of buffer (150 mM NaCl, 10 mM Tris, 2 mM EDTA, pH 7.5) and layered onto Ficoll-Paque gradients, 9 ml platelet concentrate to 2 ml Ficoll, and centrifuged at 1,900 rpm for 15 minutes in a SORVALL RT6000 centrifuge. This step removes the residual red blood cells and other nonspecific material such as lymphocytes from the preparation. The platelets which form a band between the plasma and the Ficoll were removed, resuspended in the above buffer and centrifuged at 3,000 rpm for 10 minutes in a SORVALL RT6000 centrifuge. The pelleted platelets were resuspended in buffer (10 mM Tris, 5 mM MgCl2, 2 mM EDTA, pH 7.0), snap freezed in liquid N2 and allowed to thaw slowly at room temperature in order to lyse the platelets. The latter step was repeated at least 3 times to ensure proper lysis. The lysed platelets were centrifuged at 3,000 rpm for 10 minutes in a SORVALL RT6000 centrifuge and resuspended in buffer. The latter step was repeated twice in order to remove any cytoplasmic proteins which may hydrolyse the platelet activating factor (PAF) receptor. The prepared platelet membranes may be stored at -70° C. After thawing the prepared membranes were centrifuged in a SORVALL RT6000 at 3,000 rpm for 10 minutes and resuspended in assay buffer.
The assay was conducted by preparing a series of Tris-buffered solutions of the selected antagonist of predetermined concentrations. Each of these solutions contained [^3 H]-PAF (0.5 nM; 1-O-[^3 H]octadecyl-2-acetyl-sn-glycero-3-phosphoryl choline with a specific activity of 132 Ci/mmol), unlabelled PAF (1000 nM), a known amount of the test antagonist, and a sufficient amount of Tris-buffer solution (10 mM Tris, 5 mM MgCl2, pH 7.0, 0.25% BSA) to make the final volume 1 ml. Incubation was initiated by the addition of 100 μg of the isolated membrane fraction to each of the above solutions at 0° C. Two control samples, one (C1 ) which contained all the ingredients described above except the antagonist and the other (C2) contains C1 plus a 1000-fold excess of unlabelled PAF, were also prepared and incubated simultaneously with the test samples.
After 1 hour incubation, each solution was filtered rapidly under vacuo through a WHATMAN GF/C glass fibre filter in order to separate unbound PAF from bound PAF. (The word WHATMAN is a trade mark.) The residue in each case was rapidly washed 4 times with 5 ml cold (4° C.) Tris-buffer solution. Each washed residue was dried under vacuum on a sampling manifold and placed into vials containing 20 ml of OPTIPHASE MP scintillation fluid and the radioactivity counted in a liquid scintillation counter. (The word OPTIPHASE is a trade mark.) Defining the counts for total binding with antagonist from a test sample as "TBA"; the counts for total binding from the control sample C1 as "TB"; and the counts for nonspecific binding from the control sample C2 as "NSB", the percent inhibition of each test antagonist can be determined by the following equation:
Inhibition=[(TB-TBA)/SB]×100
where the specific binding SB=TB-NSB
Table 1 lists results from this assay for inhibition of [^3 H]-PAF receptor binding for illustrative examples of the compounds of this invention. […]

Row | SMILES | IC50 [nM]
1 | CCCCCCCCCCCCCCCCCC(=O)OC[C@H](CC(C)C)N(C)S(=O)(=O)c1ccc(Cn2c(C)nc3cnccc32)cc1 [Example 44, O-Octadecanoyl-N-methyl-N-4-(1H-2-methylimidazo[4,5-c]pyridinylmethyl)phenylsulphonyl-L-leucinol] | 1
2 | CCCCCCCCCCCCCCCCCCNC(=O)OC[C@H](CC(C)C)N(C)S(=O)(=O)c1ccc(Cn2c(C)nc3cnccc32)cc1 [Example 109, O-Octadecylaminocarbonyl-N-methyl-N-4-(1H-2-methylimidazo[4,5-c]pyridinylmethyl)phenylsulphonyl-L-leucinol] | 3
3 | CC1=C(/C=C/C(C)=C/C=C/C(C)=C/C(=O)OC[C@H](CC(C)C)N(C)S(=O)(=O)c2ccc(Cn3c(C)nc4cnccc43)cc2)C(C)(C)CCC1 [Example 79, O-Retinoyl-N-methyl-N-4-(1H-2-methylimidazo[4,5-c]pyridinylmethyl)phenylsulphonyl-L-leucinol] | 4
4 | CCOC(=O)C(=O)OC[C@H](CC(C)C)N(C)S(=O)(=O)c1ccc(Cn2c(C)nc3cnccc32)cc1 [Example 47, O-Ethyloxaloyl-N-methyl-N-4-(1H-2-methylimidazo[4,5-c]pyridinylmethyl)phenylsulphonyl-L-leucinol] | 2
5 | Cc1nc2cnccc2n1Cc1ccc(S(=O)(=O)N(C)[C@H](CO)CC(C)C)cc1 [Example 1, N-Methyl-N-4-(1H-2-methylimidazo[4,5-c]pyridinylmethyl)phenylsulphonyl-L-leucinol] | 7
6 | Cc1noc([C@H](CC(C)C)N(C)S(=O)(=O)c2ccc(Cn3c(C)nc4cnccc43)cc2)n1 [Example 155, N-Methyl-N-4-(1H-2-methylimidazo[4,5-c]pyridinylmethyl)phenylsulphonyl-1-(3-methyl-1,2,4-oxadiazol-5-yl)-3-methylbutylamine] | 2
7 | CCC(=O)OC[C@H](CC(C)C)N(C)S(=O)(=O)c1ccc(Cn2c(C)nc3cnccc32)cc1 [Example 45, O-Propanoyl-N-methyl-N-4-(1H-2-methylimidazo[4,5-c]pyridinylmethyl)phenylsulphonyl-L-leucinol] | 0.5
8 | CC(=O)Oc1ccccc1C(=O)OC[C@H](CC(C)C)N(C)S(=O)(=O)c1ccc(Cn2c(C)nc3cnccc32)cc1 [Example 49, O-2-Acetoxybenzoyl-N-methyl-N-4-(1H-2-methylimidazo[4,5-c]pyridinylmethyl)phenylsulphonyl-L-leucinol] | 2

What follows are compounds tested on platelet activating factor (assay: antagonism of platelet activating factor (statement in words)). Settings: not given.

Row | SMILES | antagonism of platelet activating factor (in words)
9 | Cc1nc2ccn(Cc3ccc(S(=O)(=O)N(C)Cc4cccs4)cc3)cc-2n1 [N-methyl-N-4-(5H-2-methylimidazo[4,5-c]pyridinylmethyl)phenylsulphonyl-2-thienylmethylamine] | are antagonists of platelet activating factor
10 | Cc1nc2ccncc2n1Cc1ccc(S(=O)(=O)N(C)Cc2cccs2)cc1 [N-methyl-N-4-(3 H-2-methylimidazo[4,5-c]pyridinylmethyl)phenylsulphonyl-2-thienylmethylamine] | are antagonists of platelet activating factor

What follows are compounds tested on PAF-induced hypotension (assay: reversal of hypotension caused by an infusion of PAF in rats). Settings: iv; i.v. bolus; PAF 100 ng/kg/min infused i.v.; anaesthetised rat; read-out: inhibition of PAF-induced hypotension in the rat, ED50 (dose to cause a 50% reversal of the hypotensive PAF response).
Type: in vivo, Male Sprague-Dawley rats
Procedure: Male Sprague-Dawley rats (300-350 g) were anaesthetised with a mixture of sodium pentobarbitone, 22.5 mg/kg and thiopental 62.5 mg/kg. Through a midline incision in the neck, the trachea was cannulated and the animals breathed spontaneously. A carotid artery was cannulated for the measurement of blood pressure and this signal was used to trigger a rate meter to measure heart rate. Both jugular veins were cannulated: one for the infusion of PAF and the other for the bolus administration of test compounds.
PAF, 100 ng/kg/min was infused i.v. until a sustained fall in mean blood pressure of 50 mmHg was achieved. […] The peak of this reversal was measured and the dose to cause a 50% reversal of the hypotensive PAF response (ED50) calculated by straight line interpolation and the results are presented in Table 2.

Row | SMILES | ED50 [µg/kg]
11 | CCc1noc([C@H](CC(C)C)N(C)S(=O)(=O)c2ccc(Cn3c(C)nc4cnccc43)cc2)n1 [Example 156, N-Methyl-N-4-(1H-2-methylimidazo[4,5-c]pyridinylmethyl)phenylsulphonyl-1-(3-ethyl-1,2,4-oxadiazol-5-yl)-3-methylbutylamine] | 0.6
12 | CCCCCCCCCCCCCCCCCC(=O)OC[C@H](CC(C)C)N(C)S(=O)(=O)c1ccc(Cn2c(C)nc3cnccc32)cc1 [Example 44, O-Octadecanoyl-N-methyl-N-4-(1H-2-methylimidazo[4,5-c]pyridinylmethyl)phenylsulphonyl-L-leucinol] | 4.6
13 | COc1ccc(SCC(=O)OC[C@H](CC(C)C)N(C)S(=O)(=O)c2ccc(Cn3c(C)nc4cnccc43)cc2)cc1OC [Example 78, O-2-(3,4-Dimethoxyphenylmercapto)ethanoyl-N-methyl-N-4-(1H-2-methylimidazo[4,5-c]pyridinylmethyl)phenylsulphonyl-L-leucinol] | 5.8
14 | CC(=O)Oc1ccccc1C(=O)OC[C@H](CC(C)C)N(C)S(=O)(=O)c1ccc(Cn2c(C)nc3cnccc32)cc1 [Example 49, O-2-Acetoxybenzoyl-N-methyl-N-4-(1H-2-methylimidazo[4,5-c]pyridinylmethyl)phenylsulphonyl-L-leucinol] | 2.2
15 | Cc1nc2cnccc2n1Cc1ccc(S(=O)(=O)N(C)[C@H](COC(=O)NCc2ccccn2)CC(C)C)cc1 [Example 108, O-Pyridin-2-ylmethylaminocarbonyl-N-methyl-N-4-(1H-2-methylimidazo[4,5-c]pyridinylmethyl)phenylsulphonyl-L-leucinol] | 6.6
16 | CN(C(=O)c1ccc(Cn2cnc3cnccc32)cc1)C1CCCCC1 [Comparative Example, N-Cyclohexyl-N-methyl-4-(1H-imidazo[4,5-c]pyridinylmethyl)benzamide, reference compound] | 150
